This passage reports GI50 and IC50 results from ChEMBL document CHEMBL5131567, “3,5,7-Substituted Pyrazolo[4,3-d]Pyrimidine Inhibitors of Cyclin-Dependent Kinases and Cyclin K Degraders” (J Med Chem, 2022).

Test [1] in a line: Antiproliferative activity against human UPF1H cells assessed as cell growth inhibition measured after 72 hrs by resazurin dye based microplate reader analysis. Type of test: functional.
Test [2] in a line: Antiproliferative activity against human MINO cells assessed as cell growth inhibition measured after 72 hrs by resazurin dye based microplate reader analysis. Type of test: functional.
Test [3] has as its target Cyclin-dependent kinase 2/cyclin E1 (Homo sapiens, UniProt P24941). Nature of the test: Inhibition of His-tagged CDK2/cyclin E1 (unknown origin) expressed in Sf9 cells using histone H1 as substrate in presence of ATP and [gamma33-P]ATP by radioisotope filter binding assay. Type of test: cell-based.

For the molecule `CC(C)c1[nH]nc2c(NCc3ccc(-n4cccn4)cc3)nc(SCCN(C)C)nc12`, the concentration for 50% growth inhibition (GI50) in test [1] stood at 84 nM; in test [2], 18 nM.
For `CC(C)c1[nH]nc2c(NCc3ccc(-n4cccn4)cc3)nc(S(C)(=O)=O)nc12`, the GI50 was 250 nM in test [1] and 30 nM in test [2]. The half-maximal inhibitory concentration (IC50) in test [3] was 53 nM.
For `CC(C)c1n[nH]c2c(NCc3ccc(-n4ccnc4)cc3)nc(SCCO)nc12`, in that order: 6470 nM, 1480 nM and 12 nM.
On to `CC(C)c1[nH]nc2c(NCc3ccc(-n4cccn4)cc3)nc(S)nc12`, for which the figures for the GI50 in test [1] and in test [2] were at least 10000 nM and 5900 nM, respectively. The IC50 in test [3] is 256 nM.
Consider `CC(C)c1n[nH]c2c(NCc3ccc(-c4cnccn4)cc3)nc(SCCO)nc12`, for which the values for the concentration for 50% growth inhibition (GI50) in test [1] and in test [2] were 56 nM and 16 nM, respectively.
`CC(C)c1[nH]nc2c(NCc3ccc(-n4cccn4)cc3)nc(SCCN)nc12`: the GI50 amounted to 4 nM in test [1] and 1 nM in test [2]. Further, the concentration for half-maximal inhibition (IC50) in test [3] was found to be 2 nM.
Take `CC(C)c1n[nH]c2c(NCc3ccc(-c4c[nH]cn4)cc3)nc(SCCO)nc12`: the concentration for 50% growth inhibition (GI50) in test [1] stood at 1420 nM; in test [2] it was 490 nM.
For `CC(C)c1[nH]nc2c(NCc3ccc(-n4cccn4)cc3)nc(SCC(O)CO)nc12` (stereo not given), the results for the concentration for 50% growth inhibition (GI50) in test [1] and in test [2] were 26 nM and 9 nM, respectively. The 50% inhibitory concentration (IC50) in test [3] came to 5 nM.
Consider `CC(C)c1[nH]nc2c(NCc3ccc(-n4cccn4)cc3)nc(SCC(C)(C)N)nc12`, for which the GI50 in test [1] was found to be 14 nM; in test [2], 9 nM.
As for `CC(C)c1[nH]nc2c(NCc3ccc(-n4cccn4)cc3)nc(SCCCN(C)C)nc12`, the values for the 50% growth inhibitory concentration (GI50) in test [1] and in test [2] were 39 nM and 17 nM, respectively. The IC50 in test [3] amounted to 75 nM.
Consider `CC(C)c1[nH]nc2c(NCc3ccc(-n4cccn4)cc3)nc(SCCO)nc12`, for which the figures for the GI50 in test [1] and in test [2] were 20 nM and 6 nM, respectively. The half-maximal inhibitory concentration (IC50) in test [3] was found to be 5 nM.
The like results for `CCC(O)CSc1nc(NCc2ccc(-n3cccn3)cc2)c2n[nH]c(C(C)C)c2n1` (stereo not given) were, in that order, 591 nM, 22 nM and 25 nM.
Take `CC(C)c1[nH]nc2c(NCc3ccc(-n4cccn4)cc3)nc(SCC(N)CN)nc12` (stereo not given): the concentration for 50% growth inhibition (GI50) in test [1] stood at 580 nM; in test [2], 410 nM. Besides, the half-maximal inhibitory concentration (IC50) in test [3] was 19 nM.
The like results for `CC(C)c1n[nH]c2c(NCc3ccc(-c4cnccn4)cc3)nc(S)nc12` were, in that order, at least 10000 nM, 8900 nM and 978 nM.
`OCCSc1nc(NCc2ccc(-c3ccccn3)cc2)c2[nH]nc(C3CCC3)c2n1`: the 50% growth inhibitory concentration (GI50) was 152 nM in test [1] and 58 nM in test [2]. For the same molecule, in test [3], the half-maximal inhibitory concentration (IC50) came to 9 nM.
Turning to `CC(O)CNc1nc(NCc2ccc(-n3cccn3)cc2)c2n[nH]c(C(C)C)c2n1` (stereo not given), the concentration for 50% growth inhibition (GI50) came out at 42 nM in test [1] and 16 nM in test [2]. The 50% inhibitory concentration (IC50) in test [3] worked out at 37 nM.
On to `CC(C)c1n[nH]c2c(NCc3ccc(-c4c[nH]cn4)cc3)nc(S)nc12`, for which the GI50 in test [1] and in test [2] was at least 10000 nM throughout. For the same molecule, the half-inhibitory concentration (IC50) in test [3] turned out to be 464 nM.
For the molecule `CC(C)c1n[nH]c2c(NCc3ccc(-n4ccnc4)cc3)nc(S)nc12`, the GI50 in test [1] and in test [2] was at least 10000 nM throughout. For the same molecule, the concentration for half-maximal inhibition (IC50) in test [3] amounted to 2300 nM.
`CC[C@H](CO)Nc1nc(NCc2ccccc2)c2ncn(C(C)C)c2n1` [SELICICLIB]: the GI50 was 3070 nM in test [1] and 1480 nM in test [2].
Take `CSc1nc(NCc2ccc(-n3cccn3)cc2)c2n[nH]c(C(C)C)c2n1`: the 50% growth inhibitory concentration (GI50) in test [1] amounted to 810 nM; in test [2], 310 nM. Also, in test [3], the IC50 came to 24 nM.
In the case of `CC(C)c1[nH]nc2c(NCc3ccc(-n4cccn4)cc3)nc(SCC(C)(C)O)nc12`, the GI50 turned out to be 87 nM in test [1] and 34 nM in test [2].
As for `CC(C)c1[nH]nc2c(NCc3ccc(-n4cccn4)cc3)nc(SCC(O)CN)nc12` (stereo not given), the GI50 in test [1] amounted to 95 nM; in test [2] it was 43 nM. In addition, the IC50 in test [3] turned out to be 6 nM.
